Some test systems named below: A549 NSCLC; CCRF-CEM leukemia; COLO 205 colon; M14 melanoma; MDA-MB-231 breast; RXF 393 renal; SNB-19 CNS; U251 CNS; UO-31 renal; SR leukemia.
Holding throughout (test): NCI anticancer screen, dose series, 48 h

From PubChem BioAssay (NCI) come the findings set out here.

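Tested at 5 concentrations; 48 h exposure; 96-well plates; endpoints linearly interpolated, else capped at highest concentration. Abbreviation: GI50, concentration required for 50% inhibition of growth. TGI marks complete inhibition of growth.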

Consider `O=C1c2ccccc2-c2c1c1ccccc1c(=O)n2CCNCCCNCCn1c2c(c3ccccc3c1=O)C(=O)c1ccccc1-2`, for which the GI50 is 0.0521 µM in the test with A549 NSCLC; below 0.005 µM with CCRF-CEM leukemia; 0.637 µM with COLO 205 colon; 0.257 µM in the test with M14 melanoma; 0.161 µM with MDA-MB-231 breast; below 0.005 µM with RXF 393 renal. Moreover, the GI50 with SNB-19 CNS is 0.389 µM; with U251 CNS, 0.146 µM; in the test with UO-31 renal it was 0.221 µM. Besides, the TGI in the test on A549 NSCLC was determined as 0.662 µM; with CCRF-CEM leukemia, 1.43 µM; with COLO 205 colon, 1.59 µM; with M14 melanoma it was 0.536 µM; in the test on MDA-MB-231 breast it was 0.548 µM; in the test with RXF 393 renal it was 0.577 µM. Also, the TGI is above 50 µM with SNB-19 CNS, 0.371 µM with U251 CNS and 1 µM in the test with UO-31 renal.

As for `CN1CCN(C)C1c1cccc(C2N(C)CCN2C)c1`, the TGI with CCRF-CEM leukemia, in the test on COLO 205 colon, in the test with M14 melanoma, with RXF 393 renal, in the test with SNB-19 CNS and in the test on U251 CNS was above 100 µM each time. In addition, in the test on UO-31 renal, the TGI is above 100 µM.

As for `O=C1c2ccccc2-c2cccc3ccc(Cc4ccccc4)c1c23`, the TGI in the test with A549 NSCLC, with CCRF-CEM leukemia, with COLO 205 colon, in the test on M14 melanoma, in the test on RXF 393 renal and in the test on SNB-19 CNS was above 100 µM each time. Further, the TGI in the test with U251 CNS and in the test on UO-31 renal was above 100 µM each time.

Take `CC(=O)c1c(C)n([O-])c2cc(C)c(C)cc2[n+]1=O`: the TGI with A549 NSCLC, with CCRF-CEM leukemia, in the test on COLO 205 colon, in the test with M14 melanoma, in the test with SNB-19 CNS and in the test on U251 CNS was above 100 µM each time. In the test on UO-31 renal, this compound yielded a TGI above 100 µM.

For the compound `COc1ccc(-c2cc(-c3cc(Cl)ccc3Cl)nc3nc(=S)[nH]c(N)c23)cc1`, the GI50 was 15.2 µM in the test with A549 NSCLC; 26.6 µM in the test with CCRF-CEM leukemia; 85.7 µM with COLO 205 colon; 24 µM in the test with M14 melanoma; 3.62 µM with MDA-MB-231 breast; 58.1 µM with SNB-19 CNS. The GI50 with U251 CNS is 22.1 µM; in the test with UO-31 renal, 58.1 µM. The TGI with A549 NSCLC was 41.8 µM; in the test on CCRF-CEM leukemia, above 100 µM; in the test with COLO 205 colon it was above 100 µM; in the test with M14 melanoma, 45 µM; with MDA-MB-231 breast, 19.8 µM; in the test on SNB-19 CNS, above 100 µM. Moreover, the TGI is 72.1 µM with U251 CNS and above 100 µM in the test with UO-31 renal.

Take `O=C(Nc1ccc(S(=O)(=O)N[C@@H](C(=O)O)c2ccccc2)cc1)c1ccc(F)cc1`: the TGI in the test on A549 NSCLC, in the test with CCRF-CEM leukemia, with COLO 205 colon, in the test with M14 melanoma, in the test with RXF 393 renal and with SNB-19 CNS was above 100 µM each time. For the same compound, the TGI in the test on U251 CNS and with UO-31 renal was above 100 µM in each case.

As to `COc1cc(/C=C\c2ccc(O)cc2)cc(OC)c1OC`, the TGI in the test on A549 NSCLC is above 100 µM; with CCRF-CEM leukemia, above 100 µM; in the test with COLO 205 colon, 13.9 µM; in the test on M14 melanoma, above 100 µM; in the test with RXF 393 renal it was above 25.1 µM; in the test with SNB-19 CNS, above 100 µM. Also, the TGI was above 23.6 µM in the test on U251 CNS and above 36.6 µM in the test on UO-31 renal.

`NC1=NC(=O)C(CC(=O)Nc2ccc([N+](=O)[O-])cc2[N+](=O)[O-])S1` (stereo unspecified): the TGI in the test with A549 NSCLC, in the test with CCRF-CEM leukemia, in the test on COLO 205 colon, with M14 melanoma, in the test on RXF 393 renal and in the test with SNB-19 CNS was above 100 µM each time. The TGI in the test on U251 CNS and with UO-31 renal was above 100 µM throughout.

With `CC(=O)OCCOCBr`, the TGI in the test with A549 NSCLC, in the test with CCRF-CEM leukemia, in the test with COLO 205 colon, in the test with M14 melanoma, in the test with RXF 393 renal and in the test on U251 CNS was above 100 µM each time. This compound also had a TGI in the test with UO-31 renal above 100 µM.

For the compound `CC1=Nc2c(ccc3c2C(=O)c2ccccc2C3=O)NC(c2ccncc2)C1` (stereo unspecified), the TGI in the test on A549 NSCLC, with CCRF-CEM leukemia, with M14 melanoma, with RXF 393 renal, with SNB-19 CNS and in the test with U251 CNS was above 100 µM in each case. The same compound showed a TGI in the test with UO-31 renal above 100 µM. In addition, the GI50 in the test on M14 melanoma, in the test on RXF 393 renal, in the test with SNB-19 CNS, with SR leukemia and in the test on U251 CNS was above 100 µM throughout.

For the compound `COc1ccc(C(=O)C(C(=O)CCC(=O)Nc2cccc(C(F)(F)F)c2)c2ccccc2)cc1` (stereo unspecified), the TGI in the test on A549 NSCLC, in the test on CCRF-CEM leukemia, in the test on COLO 205 colon, in the test on M14 melanoma, with SNB-19 CNS and in the test on SR leukemia was above 100 µM each time. The TGI in the test with U251 CNS and in the test on UO-31 renal was above 100 µM in each case.

`CC/C=C\C/C=C\C1CC(=O)NCCCNCCCCN1` (stereo unspecified): the TGI was above 100 µM in the test on A549 NSCLC; above 100 µM in the test on COLO 205 colon; above 100 µM in the test with M14 melanoma; 70.4 µM with RXF 393 renal; above 100 µM in the test with SNB-19 CNS; above 100 µM in the test on SR leukemia. The TGI in the test on U251 CNS and with UO-31 renal was above 100 µM each time.

Regarding `c1cc[c]([Sn]([S]c2cccc3cccnc23)([c]2ccccc2)[c]2ccccc2)cc1`, the GI50 in the test on A549 NSCLC was 0.0331 µM; in the test on CCRF-CEM leukemia, 0.0158 µM; with COLO 205 colon, 0.017 µM; in the test with M14 melanoma, 0.0222 µM; with SNB-19 CNS, 0.256 µM; in the test on U251 CNS it was 0.0347 µM. Further, the GI50 in the test on UO-31 renal is 0.0511 µM. Besides, the TGI was 0.224 µM with A549 NSCLC; 0.0744 µM with CCRF-CEM leukemia; 0.0352 µM in the test with COLO 205 colon; 0.0624 µM in the test with M14 melanoma; 0.901 µM with SNB-19 CNS; 0.11 µM in the test with U251 CNS. The compound further yielded a TGI in the test on UO-31 renal of 0.145 µM.

On to `COc1ccc(C2=NC(C)(C)CO2)cc1`, for which the TGI in the test on A549 NSCLC, in the test with CCRF-CEM leukemia, with COLO 205 colon, in the test on RXF 393 renal, in the test on SNB-19 CNS and in the test on SR leukemia was above 100 µM each time. Moreover, the TGI in the test on U251 CNS was above 100 µM.
